# Reference: US10976310B2, “Ligand identification by co-fractionation” (MAX-PLANCK-GESELLSCHAFT ZUR FÖRDERUNG DER WISSENSCHAFTEN …, priority 2016, dated 2021)
# pKd: −log10 of the molar value. Where two headings read alike, the source gives them in different places. Peptide text beside a SMILES is read from it.
# Key:
# FBA6 = biological target: T1, FBA6 (Arabidopsis thaliana, UniProt Q9SJQ9); test: Microscale thermophoresis (MST) binding to FBA6 expressed and purified from E. coli
# T1 construct: made in house; host or cells: E. coli
# T1 sequence (Q9SJQ9 1-358): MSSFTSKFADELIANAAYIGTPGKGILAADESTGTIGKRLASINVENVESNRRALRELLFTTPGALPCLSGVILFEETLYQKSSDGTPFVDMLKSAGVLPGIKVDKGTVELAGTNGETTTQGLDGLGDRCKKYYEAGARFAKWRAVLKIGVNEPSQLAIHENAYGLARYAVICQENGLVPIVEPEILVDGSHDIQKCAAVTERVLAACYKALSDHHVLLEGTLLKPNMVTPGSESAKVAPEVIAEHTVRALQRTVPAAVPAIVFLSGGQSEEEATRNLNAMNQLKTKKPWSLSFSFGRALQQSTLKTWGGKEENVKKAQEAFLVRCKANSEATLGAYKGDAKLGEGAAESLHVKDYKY
# Description: FBA6 protein was expressed and purified from E. coli. MST uses the intristic tendency of all the biological molecules to move in the temperature gradient. This movement is dependent on the molecule size, charge and hydration shell. Complex formation affects at least one of the three parameters changing the movement and indicating binding event. […] The results obtained point to both strong and specific interaction.
# [1] = biological target: T2, 3-methyl-2 oxobutanoate hydroxymethyl-transferase 1 (KPHMT1) (Arabidopsis thaliana, UniProt O82357); test: Microscale thermophoresis (MST) assay, Panthotenate-KPHMT1 interaction; format: binding; conditions: mean±SD, n=3
# T2 sequence (O82357 49-347): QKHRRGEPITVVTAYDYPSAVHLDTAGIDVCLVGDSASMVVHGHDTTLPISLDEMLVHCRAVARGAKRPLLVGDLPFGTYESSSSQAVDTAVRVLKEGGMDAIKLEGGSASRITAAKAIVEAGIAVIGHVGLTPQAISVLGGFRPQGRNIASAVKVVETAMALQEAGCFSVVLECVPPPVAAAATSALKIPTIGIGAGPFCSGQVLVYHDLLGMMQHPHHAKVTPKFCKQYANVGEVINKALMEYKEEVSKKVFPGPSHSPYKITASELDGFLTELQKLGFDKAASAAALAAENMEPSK
# Method: B) Panthotenate-KPHMT1 interaction was tested by Microscale thermophoresis (MST) assay. […] Data are mean±SD, n=3.
# Rbp47b-TAP protein = biological target: T3, Rbp47b-TAP protein (Arabidopsis thaliana, UniProt Q0WW84); test: Cellular thermal shift assay (CETSA) in native Arabidopsis lysate; format: binding; conditions: analogous experiment, native protein lysate
# T3 construct: expressed in transfected cells; host or cells: Arabidopsis cell suspension culture, Agrobacterium-transformed
# T3 sequence (Q0WW84 1-435): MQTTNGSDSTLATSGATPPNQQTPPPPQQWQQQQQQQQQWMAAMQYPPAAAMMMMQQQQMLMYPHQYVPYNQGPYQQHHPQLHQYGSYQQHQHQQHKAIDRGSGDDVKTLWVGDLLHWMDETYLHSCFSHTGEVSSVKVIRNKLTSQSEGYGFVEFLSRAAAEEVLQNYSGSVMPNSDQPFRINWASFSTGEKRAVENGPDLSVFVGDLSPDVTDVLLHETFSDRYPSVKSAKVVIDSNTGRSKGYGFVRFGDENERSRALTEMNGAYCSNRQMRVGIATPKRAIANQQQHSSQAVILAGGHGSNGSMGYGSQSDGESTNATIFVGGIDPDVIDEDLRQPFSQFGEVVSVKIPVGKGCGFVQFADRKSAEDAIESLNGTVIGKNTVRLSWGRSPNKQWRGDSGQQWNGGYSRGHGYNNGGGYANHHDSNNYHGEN
# Method: To this end we set out to identify the binding protein partners of 2′,3′-cAMP by applying affinity purification (AP) using agarose beads, with 2′,3′-cAMP linked via the NH2 group of the purine ring. After incubation of the beads with total soluble-protein extracts from A. thaliana cell suspension cultures (cf. Materials and Methods) sequential washings with ADP, GDP, 5′-AMP, and finally 2′,3′-cAMP were performed, and the proteins eluting in the different washings were analyzed by LC-MS/MS proteomics. Proteins eluting from the agarose beads exclusively with 2′,3′-cAMP but absent in any of the other eluents (ADP, GDP, or 5′-AMP; FIG. 10A) were defined as 2′,3′-cAMP-binding. Applying this stringent criterion only one protein remained: the polyadenylate-binding protein Rbp47b. We reasoned that the putative formation of Rbp47b-2′,3′-cAMP complexes in vivo should be reflected by largely overlapping elution profiles of the two components in a size-exclusion experiment (SEC), as was indeed the case (FIG. 10B). To obtain further and independent evidence for the formation of a complex between Rbp47b and 2′,3′-cAMP, we performed a cellular thermal shift assay (CETSA) (Franken et al. (2015) Thermal proteome profiling for unbiased identification of direct and indirect drug targets using multiplexed quantitative mass spectrometry. Nat Protoc 10: 1567-1593). CESTA is a method used in the drug research to verify ligand-receptor binding in the native cellular lysate, based on the observation that presence of the ligand changes thermal stability of the protein receptor. Herein, we adapted the protocol to be suitable for the plant material and an endogenous […] metabolite. We used Arabidopsis cells expressing a tagged version of the Rbp47b, so that Rbp47b level could be easily detected with the anti-tag antibody. […] Taken together, three independent experimental approaches (AP, SEC, and CETSA) provide evidence for the binding of 2′,3′-cAMP to Rbp47b in the native Arabidopsis lysate. […]
# Rbp47b = biological target: T4, Rbp47b (Arabidopsis thaliana, UniProt Q0WW84); test: MST measurement of ligand binding to recombinant Rbp47b
# T4 sequence (Q0WW84 1-435): T3 sequence (Q0WW84 1-435)
# Description: We therefore attempted to determine the in vitro binding affinity biophysically using micro-scale thermophoresis (MST) (Jerabek-Willemsen et al. (2011) Molecular interaction studies using microscale thermophoresis. Assay Drug Dev Technol 9: 342-353). MST exploits the effect of size, charge, and hydration shell on the movement of molecules in a temperature gradient. Complex formation resulting in alteration of at least one of the three parameters leads to differential movement, from which the binding affinity can be determined. For the purpose of the MST experiment, Rbp47b was expressed in and purified from E. coli. […] The measured Kd value also corresponds to the ˜20 μM concentration of 2′,3′-cAMP measured in the native Arabidopsis lysate (FIG. 11B).
# TIA1 protein was purchased from Origene (Herford, Germany). Rbp47b was cloned as a C-terminal GFP fusion (to increase protein solubility) into the E. coli expression vector pDEST14 containing His6-tag at the N-terminal of the Gateway (Karlsruhe, Germany) cassette. […]
# Next day, cells were disrupted with an Avestin (Mannheim, Germany) EmulsiFlex C3 homogenizer and the protein was purified using imidazole-gradient purification in Ni-NTA agarose (Qiagen 34080, Hilden, Germany). […] Protein purity was assessed by SDS-PAGE and protein identification was done using western blot using anti-His6 antibodies. […]
# TIA1 = biological target: T5, TIA1 (Homo sapiens, UniProt P31483); test: MST measurement of ligand binding to recombinant TIA1
# T5 construct: purchased Origene (Herford, Germany)
# T5 sequence (P31483 1-386): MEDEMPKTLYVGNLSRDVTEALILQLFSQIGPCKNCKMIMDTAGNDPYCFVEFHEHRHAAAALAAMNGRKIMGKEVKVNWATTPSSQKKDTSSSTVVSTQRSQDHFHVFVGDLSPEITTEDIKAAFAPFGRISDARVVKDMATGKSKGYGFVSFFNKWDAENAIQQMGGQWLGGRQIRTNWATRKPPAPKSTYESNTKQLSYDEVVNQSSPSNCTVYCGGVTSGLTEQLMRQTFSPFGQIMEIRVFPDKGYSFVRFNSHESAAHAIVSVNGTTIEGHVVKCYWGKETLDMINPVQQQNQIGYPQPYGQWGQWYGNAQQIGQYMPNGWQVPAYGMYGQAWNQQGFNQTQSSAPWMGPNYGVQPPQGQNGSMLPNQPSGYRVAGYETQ
# Method: Expecting such a basic role of 2′,3′-cAMP to be conserved, we performed similar analysis with TIA1, the human functional homolog of Rbp47b. TIA1 was labeled and its interaction with 2′,3′-cAMP was determined using MST.
# TIA1 protein was purchased from Origene (Herford, Germany). Rbp47b was cloned as a C-terminal GFP fusion (to increase protein solubility) into the E. coli expression vector pDEST14 containing His6-tag at the N-terminal of the Gateway (Karlsruhe, Germany) cassette. Rosetta cells expressing His6-Rbp47b-GFP were grown at 28° C. overnight and next day were moved to Terrific Broth medium supplied with 1% sucrose and relevant antibiotics. Cultures at OD 0.4 were induced by addition of 0.1 mM IPTG and transferred to 16° C. for overnight incubation.
# MST measurements were performed using a Monolith NT.115 instrument (NanoTemper, München, Germany). Capillaries were loaded into the instrument as sets of 13-16 point ligand titrations. Proteins (Rb47b and TIA1) were labeled in phosphate buffer (PBS) using Monolith™ protein labeling kit RED-NHS (amine reactive; MO-L001) according to the manufacturers instruction. Excitation was optimized by varying the LED power to yield emission intensities above 200 AU, corresponding to 10-50 nM labeled protein. Monolith power was set to 60%. Ligands [2′,3′-cAMP (Sigma A9376)] and [3′,5′-cAMP (Sigma A6885)] were dissolved in PBS. […]
# [2] = biological target: T6, gibberellin receptor GID1 (Oryza sativa subsp. japonica, UniProt Q6L545); conditions: Ueguchi-Tanaka et al. (2005); read-out: Kd of binding to GID1; cited from earlier work
# T6 sequence (Q6L545 1-354): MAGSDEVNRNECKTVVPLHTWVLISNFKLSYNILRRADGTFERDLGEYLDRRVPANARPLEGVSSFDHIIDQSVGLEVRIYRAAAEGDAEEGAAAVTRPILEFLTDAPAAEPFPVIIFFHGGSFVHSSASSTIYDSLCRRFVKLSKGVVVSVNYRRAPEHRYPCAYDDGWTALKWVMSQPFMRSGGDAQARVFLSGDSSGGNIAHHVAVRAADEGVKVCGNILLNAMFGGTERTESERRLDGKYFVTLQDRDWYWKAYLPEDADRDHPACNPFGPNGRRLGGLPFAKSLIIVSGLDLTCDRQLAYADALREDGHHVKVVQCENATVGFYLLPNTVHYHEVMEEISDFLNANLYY
# [3] = biological target: T7, Methylthioribose-1-phosphate isomerase (MTR-1-P) (Arabidopsis thaliana, UniProt Q9ZUG4); test: Microscale thermophoresis (MST) assay, MTA-MTR-1-P interaction; format: binding; conditions: mean±SD, n=3
# T7 sequence (Q9ZUG4 1-374): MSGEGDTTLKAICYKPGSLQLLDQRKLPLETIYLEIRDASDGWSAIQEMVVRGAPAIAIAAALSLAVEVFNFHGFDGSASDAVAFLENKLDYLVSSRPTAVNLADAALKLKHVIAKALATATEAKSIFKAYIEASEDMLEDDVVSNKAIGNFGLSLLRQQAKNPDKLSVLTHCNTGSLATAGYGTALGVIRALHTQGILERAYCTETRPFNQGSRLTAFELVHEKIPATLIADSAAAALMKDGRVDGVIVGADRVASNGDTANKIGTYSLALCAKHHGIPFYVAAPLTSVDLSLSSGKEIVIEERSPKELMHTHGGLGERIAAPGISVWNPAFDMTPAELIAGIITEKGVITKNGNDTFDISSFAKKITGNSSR
molecule,measurement,setting,value
"NCC(=O)N1CCC[C@H]1C(=O)O [Gly-Pro, L-Gly-L-Pro] (H-Gly-Pro-OH)",pKd,FBA6,~6.70
"CC(C)(CO)[C@@H](O)C(=O)NCCC(=O)O [Panthotenate, Pantothenic acid]",pKd,[1],3.43
"Nc1ncnc2c1ncn2[C@@H]1O[C@@H]2COP(=O)(O)O[C@H]2[C@H]1O [3′,5′-cAMP, reference compound]",effect on thermal stability of Rbp47b (in words),Rbp47b-TAP protein,No such effect was observed
same,binding to Rbp47b (in words),Rbp47b,did not observe any binding
same,binding to TIA1 (in words),TIA1,not
"CC1C[C@]23C[C@H]1CCC2[C@]12CC[C@H](O)[C@](C)(C(=O)O1)[C@H]2[C@@H]3C(=O)O (stereo partly drawn) [16,17-dihydro-GA4]",pKd,[2],5.85
O=C(O)CNC(=O)[C@@H]1CCCN1 [Pro-Gly] (H-Pro-Gly-OH),binding to FBA6 (in words),FBA6; MST,not
dihydroxyacetone phosphate [DHAP],pKd,"FBA6; MST, FBA6 purified from E. coli, read-out: Kd of binding to FBA6",~6.70
"CSC[C@H]1O[C@@H](n2cnc3c(N)ncnc32)[C@H](O)[C@@H]1O [MTA, Methylthioadenosine]",pKd,[3],5.57
